Reference: PMC11747586, “Synthesis and Investigation of Peptide–Drug Conjugates Comprising Camptothecin and a Human Protein‐Derived Cell‐Penetrating Peptide” (Chemical Biology & Drug Design, 2025)
“And” between values parts separate entries of the source, which are not always exact repeats. Equal entries are not always repeated. Residues, ends and D or L forms follow the SMILES beside them. *: point of attachment. S(CH2)2OCO2(CPT-20-yl) = CC[C@@]1(OC(=O)OCCS*)C(=O)OCc2c1cc1n(c2=O)Cc2cc3ccccc3nc2-1

What was measured:
[1] = Parallel artificial membrane permeability assay (PAMPA); assay type: in vitro ADME; settings: 4 h; for % recovered (soluble fractions) / Papp at 4 h, 4 μM: 4 μM; for % recovered (soluble fractions): combined apical and basolateral fractions; for degradation during PAMPA experiment: cell-free, PBS, 37 °C; for Papp at 4 h, 4 μM: PAMPA, apical to basolateral, read-out: apparent permeability (Papp)
Experimental: FIGURE 4 (A) Membrane permeability and cellular uptake of PDCs, scaffold peptides, and CPT. Compounds were added to PAMPA wells (4 μM) and incubated for 4 h. Supernatant from apical and basolateral sides of the membrane were collected and analyzed using LC–MS. The amount in the combined soluble fractions was compared to the starting amount to determine % recovery, and the apparent permeability (Papp) was calculated as before (Sevin et al. [2013]). Data is expressed as mean ± SD from a single experiment with three technical replicates. (B) Internalization/cell membrane association of PDCs 12–14 and PDIP with HT144 cells. Cells were treated with PDIP or PDCs (4 μM) for 1 h, washed to remove extracellular compound, then extracted with 75% (v/v) MeCN in mQH2O (containing 1.75% (v/v) TFA), to recover soluble peptide or PDC from precipitated cell proteins. The relative amount of internalized peptide or PDC was determined by integrating area under the curve (AUC) for the [M + 6H]^6+ m/z peak (for the intact mass) using time of flight–mass spectrometry (see Figure S2). […] Data is expressed as mean ± SD from a single experiment with three technical replicates for each treatment and control and was analyzed with ANOVA (Tukey multiple comparisons; **p < 0.01, *p < 0.05). (C) Detection of intracellular CPT following 6 h treatment of HT144 cells with CPT and PDCs 12 and 14. […] Data is expressed as mean ± SD from a single experiment with three technical replicates for each treatment and was analyzed with ANOVA (Fisher multiple paired comparisons; **p < 0.01, *p < 0.05). TEXT PRINTED IN THE PICTURE: (A) PDIP: % recovered (soluble fractions): 94 | (A) 12: % recovered (soluble fractions): 58 | (A) 14: % recovered (soluble fractions): 33 | (A) 15: % recovered (soluble fractions): 40 | (A) c[A] PDIP: % recovered (soluble fractions): 34 | (A) CPT: % recovered (soluble fractions): 92 […]
For the first assay, the PDCs (12–15), scaffold peptides and CPT (4 μM) were added to the apical side of PAMPA monolayers and incubated for 4 h. […] PDIP, CPT, and PDCs 12 and 14 had high permeability (Papp ≥ 2 × 10^−6 cm/s), highlighting that these PDCs maintain membrane permeability with the CPT cargo attached. […] Reliable permeability data were not obtained for PDC 13 because of poor recovery of the PDC from soluble fractions, and degradation during the 4 h PAMPA experiment. […] Instability of the carbonate linkage within CPT conjugates containing a dipeptide linker has been previously reported (Walker et al. [2002]), highlighting the potential incompatibility of this drug–linker combination for CPT PDCs. Considering the observed degradation of 13 in the cell‐free assay, it is also possible that extracellular degradation occurred during the cytotoxicity assays.
Parallel artificial membrane permeability assay (PAMPA)
PAMPA was performed according to the manufacturer instructions for the BD Gentest pre-coated PAMPA plate system (BD Biosciences), as previously described.16 Briefly, peptides and PDCs (4 μM in PBS) were added to the apical side of PAMPA wells and incubated for 4 h at 37 °C, 5% CO2 with 95% humidity. Soluble fractions were recovered from the apical and basolateral sides, and compound concentration was quantified using a Shimadzu LCMS-2020 instrument with a Phenomenex 5 µm C18 / 300 Å / 150 x 2 mm LC column. Data was collected from three technical replicates for each compound. The % recovery was determined from (combined from apical and basolateral fractions) relative to the starting concentration:
Recovery rate : R (%) = (C஺ ×V஺ +C஻ ×V஻ )× 100 where CA and CB are the apical and basolateral concentrations (µM), VA and VB are the apical and basolateral volumes (mL), and C0 is the initial concentration (µM).
The apparent permeability coefficient (Papp) was calculated using the following equations17 and where A is the membrane surface area (cm2): […]

[2] = Cytotoxicity (resazurin) against cultured HaCaT noncancerous cells; settings: human
Experimental: (§1) Cell death was measured using resazurin, with 0.1% (v/v) Triton X‐100 as a control for 100% cell death. Data points are expressed as mean ± SD for at least two biological replicates. Dose response curves were fitted using [inhibitor] versus response with variable slope, Graphpad Prism v10. […] RBC lysis was determined by measuring released hemoglobin, with 0.1% (v/v) Triton X‐100 as a control for 100% cell lysis. Melittin was included as a membranolytic control. Data points are expressed as mean ± SD for two technical replicates. Dose response curves were fitted using [inhibitor] versus response with variable slope, Graphpad Prism v10. […] CC50 values are expressed as mean (SEM). […]
(§2) HaCaT cells were grown in DMEM medium and HT144 cells were grown in RPMI medium supplemented with 2 mM L-glutamine and 10 mM sodium pyruvate. Media were supplemented with 10% (v/v) fetal bovine serum, 100 units/mL of penicillin and […] of streptomycin. Flasks of cultured cells were maintained in a humidified incubator (37 °C, 5% CO2) and passaged every 2–3 days to maintain cultures between 20–90% confluence. Cell line identity was verified by comparing […]
(§3) STR profiles of the cell lines against database entries from the DSMZ-German collection of microorganisms and cell cultures, GmBH https://celldive.dsmz.de/str/browse.
Toxicity to the HT144 and HaCaT cell lines was tested following peptide treatment by measuring the metabolism of resazurin into fluorescent resorufin. The assays were performed with 5000 cells/well (96-well plate) in serum free media. Cells were incubated with serially diluted peptides, PDCs or drugs for 72 h or 24 h (37 °C, 5% CO2). PBS and 0.1% (v/v) Triton X-100 were included as controls for 0% and 100% toxicity. Resazurin was added at 0.02% (w/v) final concentration 2 h prior to the assay end point. Fluorescence (λex = 560 nm, λem = 585 nm) was measured using a Tecan infinite M1000Pro multiplate reader. Percentage cytotoxicity was calculated relative to 0% and 100% controls.
Dose-response curves were fitted and CC50 values were determined using [inhibitor] vs response with four parameters with the top constrained to 100% (GraphPad Prism version 10.0.2). Data was collected as three biological replicates, with experiments conducted on different days.
(§4) Red blood cell (RBC) lysis
Human RBCs and serum were obtained from healthy volunteers via the Red Cross Lifeblood, Brisbane, Australia. RBCs were washed three times with PBS and stored in culture medium (RPMI

human RBCs = test: Red blood cell (RBC) lysis, released hemoglobin; settings: 72 h
Experimental: as §1, §4
Human RBCs and serum were obtained from healthy volunteers via the Red Cross Lifeblood,
Brisbane, Australia. RBCs were washed three times with PBS and stored in culture medium (RPMI

HT144 (melanoma) cells = test: cells
Experimental: Cell death was measured using resazurin, with 0.1% (v/v) Triton X‐100 as a control for 100% cell death. Data points are expressed as mean ± SD for at least two biological replicates. Dose response curves were fitted using [inhibitor] versus response with variable slope, Graphpad Prism v10. […] RBC lysis was determined by measuring released hemoglobin, with 0.1% (v/v) Triton X‐100 as a control for 100% cell lysis. Melittin was included as a membranolytic control. Data points are expressed as mean ± SD for two technical replicates. Dose response curves were fitted using [inhibitor] versus response with variable slope, Graphpad Prism v10. […] CC50 values are expressed as mean (SEM).
Cell death was measured using resazurin, with 0.1% (v/v) Triton X-100 as a control for 100% cell death. Data points are expressed as mean ± SD for at least two biological replicates. CC50 values are expressed as mean (SEM). Note: CPT-dipeptide-PDIP was not included in this study. c[A]PDIP is a desulfurized variant of cPDIP 2 (see Table S1) to prevent the presence of free thiol during assays. […]
as §2, §3
Toxicity to the HT144 and HaCaT cell lines was tested following peptide treatment by measuring the metabolism of resazurin into fluorescent resorufin. The assays were performed with 5000 cells/well (96-well plate) in serum free media. Cells were incubated with serially diluted peptides, PDCs or […]

| Compound | % recovered (soluble fractions) [1] | degradation during PAMPA experiment [1] | CC50 at 72 h [2] [nM] | Papp at 4 h, 4 μM [1] [×10⁻⁶ cm/s] | RBC lysis (human RBCs; concentration range 16 nM—2 μM) | cytotoxic activity against HT144 at 24 h (HT144 (melanoma) cells; 24 h incubation, 16 nM to 2 μM (CPT, PDCs), up to 32 μM (peptides)) | CC50 (HT144 (melanoma) cells; Homo sapiens, HT-144, 72 h, read-out: CC50 (half maximal cytotoxicity concentration) HT144) [nM] | HC10 (minimal hemolytic concentration) RBC (human RBCs; human RBCs 0.25% v/v) [µM] | concentration that completely lysed the RBCs (human RBCs; human RBCs) [µM] |
| --- | --- | --- | --- | --- | --- | --- | --- | --- | --- |
| CC[C@H](C)[C@@H]1NC(=O)[C@H](CCCCN)NC(=O)[C@H](CCCCN)NC(=O)[C@H](Cc2ccc(O)cc2)NC(=O)[C@H](CC(C)C)NC(=O)[C@@H]2CCCN2C(=O)CNC(=O)CNC(=O)[C@@H](NC(=O)CN)CSSC[C@@H](C(=O)N[C@@H](CCC(=O)O)C(=O)N[C@@H](CO)C(N)=O)NC(=O)[C@H](CC(C)C)NC(=O)[C@H](CCCCN)NC(=O)[C@H](CCCCN)NC(=O)[C@H]([C@@H](C)CC)NC(=O)[C@H]([C@@H](C)CC)NC(=O)[C@H](CCCCN)NC(=O)[C@H](CCCCN)NC(=O)[C@H](Cc2ccc(O)cc2)NC(=O)[C@H](CC(C)C)NC(=O)[C@@H]2CCCN2C(=O)[C@H](C)NC(=O)CNC(=O)CNC(=O)[C@H](Cn2cc(COCCC(=O)N[C@H](C(=O)N[C@@H](CCCNC(N)=O)C(=O)Nc3ccc(COC(=O)O[C@]4(CC)C(=O)OCc5c4cc4n(c5=O)Cc5cc6ccccc6nc5-4)cc3)C(C)C)nn2)NC(=O)CNC(=O)CNC(=O)[C@H](CO)NC(=O)[C@H](CCC(=O)O)NC(=O)[C@H](CC(C)C)NC(=O)[C@H](CC(C)C)NC(=O)[C@H](CCCCN)NC(=O)[C@H](CCCCN)NC(=O)[C@H]([C@@H](C)CC)NC1=O [PDC 13] | poor recovery | degradation |  |  |  |  |  |  |  |
| CC[C@@]1(O)C(=O)OCc2c1cc1n(c2=O)Cc2cc3ccccc3nc2-1 [CPT, Camptothecin] | 92% and > 90% |  | 570 | ≥ 2 | did not lyse RBCs | absence of activity | 380 |  |  |
| CC[C@H](C)[C@H](NC(=O)CN)C(=O)NCC(=O)N[C@@H](C)C(=O)N[C@H](C(=O)N[C@@H](CC(C)C)C(=O)N[C@@H](CCCCN)C(=O)N[C@H](C(=O)N[C@@H](CC(C)C)C(=O)N[C@H](C(=O)N[C@H](C(=O)NCC(=O)N[C@@H](CC(C)C)C(=O)N1CCC[C@H]1C(=O)N[C@@H](C)C(=O)N[C@@H](CC(C)C)C(=O)N[C@H](C(=O)N[C@@H](CO)C(=O)N[C@@H](Cc1c[nH]c2ccccc12)C(=O)N[C@H](C(=O)N[C@@H](CCCCN)C(=O)N[C@@H](CCCNC(=N)N)C(=O)N[C@@H](CCCCN)C(=O)N[C@@H](CCCNC(=N)N)C(=O)N[C@@H](CCC(N)=O)C(=O)N[C@@H](CCC(N)=O)C(N)=O)[C@@H](C)CC)[C@@H](C)CC)[C@@H](C)O)[C@@H](C)O)C(C)C)C(C)C [Melittin] |  |  |  |  |  |  |  | 1.8 | 8 |
| CC[C@H](C)[C@@H]1NC(=O)[C@H](CCCCN)NC(=O)[C@H](CCCCN)NC(=O)[C@H](Cc2ccc(O)cc2)NC(=O)[C@H](CC(C)C)NC(=O)[C@@H]2CCCN2C(=O)[C@H](C)NC(=O)CNC(=O)CNC(=O)[C@H](CSSCCOC(=O)O[C@]2(CC)C(=O)OCc3c2cc2n(c3=O)Cc3cc4ccccc4nc3-2)NC(=O)CNC(=O)CNC(=O)[C@H](CO)NC(=O)[C@H](CCC(=O)O)NC(=O)[C@H](CC(C)C)NC(=O)[C@H](CC(C)C)NC(=O)[C@H](CCCCN)NC(=O)[C@H](CCCCN)NC(=O)[C@H]([C@@H](C)CC)NC(=O)[C@H]([C@@H](C)CC)NC(=O)[C@H](CCCCN)NC(=O)[C@H](CCCCN)NC(=O)[C@H](Cc2ccc(O)cc2)NC(=O)[C@H](CC(C)C)NC(=O)[C@@H]2CCCN2C(=O)[C@H](C)NC(=O)CNC(=O)CNC(=O)[C@H](CO)NC(=O)CNC(=O)CNC(=O)[C@H](CO)NC(=O)[C@H](CCC(=O)O)NC(=O)[C@H](CC(C)C)NC(=O)[C@H](CC(C)C)NC(=O)[C@H](CCCCN)NC(=O)[C@H](CCCCN)NC(=O)[C@H]([C@@H](C)CC)NC1=O [PDC 15] (cyclo(APLYKKIIKKLLESGGC(S(CH2)2OCO2(CPT-20-yl))GGAPLYKKIIKKLLESGGSGG)) | 40% | Negligible degradation |  | ~0.9 |  |  |  |  |  |
